# Results reported in patent US20260284207A1, “COMPOUND FOR USE AS A PEPTIDE BINDER SPECIFICALLY BINDING TO THE UBIQUITIN LIGASE ADAPTER FBXO31” (ETH ZÜRICH, priority 2022, published 2026).
# fluorescein = N-terminal fluorescein label, coupled as FITC
# Legend:
# [1] = test system: K562 cells; test: Fluorescent reporter protein stability assay in nucleofected K562 cells; type: cell-based, human; settings: sfGFP carrying a primary C-terminal amide
# Procedure: HEK293T cells were cultured in DMEM containing Glutamax (Thermo Fisher Scientific) and K562 cells were cultured in RPMI 1640 containing Glutamax (Thermo Fisher Scientific) under standard conditions. Growth media were further supplemented with 10% (v/v) Fetal Bovine Serum (Thermo Fisher Scientific) and 100 U/ml Penicillin-Streptomycin (Thermo Fisher Scientific). Stably transduced cells were selected using 2 μg/ml Puromycin (Thermo Fisher Scientific), 500 μg/ml Geneticin (Thermo Fisher Scientific) or 10 μg/ml Blasticidin (Thermo Fisher Scientific) starting two days after transduction. Induction of doxycycline-dependent vectors was performed using 500 ng/ml doxycycline (Merck) every 48 hours. […]
# For measuring stability of recombinant or semi-synthetic proteins, 1.5-2.0×10^5 cells were nucleofected with 200 pmol of protein in 20 μl cuvettes using a 4D nucleofector device (Lonza) to according the manufacturer's recommendations. Following protein delivery, cells were left to recover at 37° C. for 30-45 minutes before measuring initial mean fluorescence intensity values (to) on a Attune N×T Flow Cytometer (Thermo Fisher Scientific). […] Baseline-fluorescence values of mock nucleofected cells receiving no protein were measured and subtracted for each time point and baseline-corrected fluorescence values were normalized to t0. […]
# [2] = biological target: T1, FBXO31 (Homo sapiens, UniProt Q5XUX0); test: Competitive fluorescence polarization anisotropy (displacement of fluorescent peptide probes); type: binding; settings: probes FL-lib-SVV-NH2, FL-CycD1-NH2, FL-Pep2-NH2; 2 nM probe, 200 nM FBXO31
# T1 construct: histidine tag (Ulp1-cleavable) (cleaved yes); made in house; host or cells: bacteria (pET28b expression vector)
# Procedure: To test whether a lower molecular weight probe could be derived based on these rules, the C-terminally amidated tripeptide Ser-Val-Val-NH2 (302.37 g/mol) was tested.
# Increasing concentrations of recombinant FBXO31/SKP1 complexes were mixed with 20 nM fluorescein-labeled peptides in FPA-buffer (150 mM NaCl, 25 mM HEPES, pH 7.5) and incubated for 30 minutes at room temperature. Fluorescence polarization was measured on a Victor Nivo Plate Reader (Perkin Elmer). Following subtraction of baseline signal, polarization levels were normalized to the highest signal of each pair of amidated and non-amidated peptides. Binding curves were fitted by least squares regression and half-maximal binding concentrations were extracted using Prism 9 (Graphpad) assuming one-site binding and no contribution from unspecific interaction. Competition binding assays were performed in the same way using a fixed ratio of 2 nM fluorescent probe and 200 nM FBXO31 and 0.67 nM to 100 μM competing ligand.
# [3] = biological target: T2, recombinant FBXO31/SKP1 complexes (Homo sapiens, UniProt Q5XUX0); test: Fluorescence polarization (FP) binding of fluorescein-labeled peptides to recombinant FBXO31/SKP1; settings: wild type FBXO31/SKP1
# T2 construct: histidine tag (Ulp1-cleavable) (cleaved yes); made in house; host or cells: bacteria (pET28b expression vector)
# Procedure: It was then tested whether SCF/FBXO31 directly binds and ubiquitylates amidated clients, or whether it plays an indirect role in CTAP clearance. To this end, recombinant FBXO31 in complex with the binding partner SKP1 was purified and its affinity for various peptides was measured by fluorescence polarization (FP).
# In this regard, it was first tested whether FBXO31 specifically binds C-terminal amides rather than side chain amides in asparagine or glutamine. […] Hydrophobic residues were most strongly bound, with X—F—CONH2 as the best substrate (KD≈6 nM), followed by other and then uncharged and charged hydrophilic side chains.
# Codon-optimized CDNAs of SKP1 and FBXO31 were generated by gene synthesis (Integrated DNA Technologies) and cloned into the bacterial expression vector pET28b. Expression was performed at 18° C. overnight in presence of 0.5 mM IPTG. Following bacterial cell lysis by sonication in buffer NBA (200 mM NaCl, 50 mM HEPES, 25 mM imidazole, 5 mM DTT freshly added, pH 8.0), recombinant protein was enriched on a HisTrap FF column (Cytiva) by elution with 250 mM imidazole. […]
# Increasing concentrations of recombinant FBXO31/SKP1 complexes were mixed with 20 nM fluorescein-labeled peptides in FPA-buffer (150 mM NaCl, 25 mM HEPES, pH 7.5) and incubated for 30 minutes at room temperature. Fluorescence polarization was measured on a Victor Nivo Plate Reader (Perkin Elmer). […]
# T1 sequence (Q5XUX0 whole entry): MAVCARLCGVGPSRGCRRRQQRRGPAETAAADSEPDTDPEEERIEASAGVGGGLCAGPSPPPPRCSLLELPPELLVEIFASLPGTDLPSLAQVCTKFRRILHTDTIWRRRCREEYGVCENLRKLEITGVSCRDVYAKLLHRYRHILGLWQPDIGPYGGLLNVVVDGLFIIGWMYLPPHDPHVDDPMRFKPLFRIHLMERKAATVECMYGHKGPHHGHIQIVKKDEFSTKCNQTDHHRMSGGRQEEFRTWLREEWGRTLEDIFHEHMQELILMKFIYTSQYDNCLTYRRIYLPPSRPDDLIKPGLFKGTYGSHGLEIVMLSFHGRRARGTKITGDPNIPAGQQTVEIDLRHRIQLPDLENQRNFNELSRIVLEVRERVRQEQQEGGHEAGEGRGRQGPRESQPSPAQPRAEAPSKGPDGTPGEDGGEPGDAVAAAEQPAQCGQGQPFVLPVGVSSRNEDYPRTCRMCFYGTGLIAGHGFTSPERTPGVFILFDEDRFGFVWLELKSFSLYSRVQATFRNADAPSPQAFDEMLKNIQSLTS
# T1 sequence (P63208 whole entry partner): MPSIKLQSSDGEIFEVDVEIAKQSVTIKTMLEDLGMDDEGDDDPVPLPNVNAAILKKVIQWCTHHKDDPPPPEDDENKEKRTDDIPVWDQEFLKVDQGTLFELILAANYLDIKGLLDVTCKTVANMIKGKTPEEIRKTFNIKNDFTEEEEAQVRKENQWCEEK
# T2 sequence (Q5XUX0 whole entry): as the sequence (Q5XUX0 whole entry) above
# T2 sequence (P63208 whole entry partner): as the sequence (P63208 whole entry partner) above
Molecule,effect of inhibitor on destabilization of C-terminally amidated sfGFP [1],other results
NS(=O)(=O)OC[C@H]1C[C@@H](Nc2ccnc3cc(-c4cccc(SC(F)(F)F)c4)nn23)[C@H](O)[C@@H]1O [TAK243],fully blunted,
CC[C@H](C)[C@H](NC(=O)[C@H]([C@@H](C)CC)N(C)C(C)=O)C(=O)N[C@H](C(=O)N[C@@H](CC(C)C)C(=O)[C@@]1(C)CO1)[C@@H](C)O [epoxomicin],fully blunted,
Ser-Val-Val-NH2,,displacement of fluorescent peptide probes from FBXO31 [2]: efficiently displace
[Fluorescein]-KKYRYDVPDYSVV-NH2 (fluorescein-KKYRYDVPDYSVV-NH2) [FL-lib-SVV-NH2],,binding/affinity for FBXO31 (in words) [3]: high affinity
